According to patent US11739101B2, “Bifunctional degraders of hematopoietic progenitor kinase and therapeutic uses thereof” (Nurix Therapeutics, Inc., priority 2020, dated 2023):

Target: T1, HPK1 (Homo sapiens, UniProt Q92918)
T1 construct: A HiBiT tag was introduced by CRISPR on the N terminus of HPK1 in Jurkat cells; host or cells: Jurkat (ATCC TIB-152), monoclonal CRISPR HiBiT knock-in line
Assay: HPK1 Cellular HiBiT Degradation Assay
Format: cell-based
Details: HiBiT-tagged HPK1 Jurkat cells, 24 hours, 10 uM to 0.1 nM; Dmax = 100 minus lowest % HPK1 remaining vs DMSO vehicle
Method: HiBiT HPK1 Jurkat cell lines were used to evaluate the total protein levels of HPK1 in a robust human cellular high throughput format. The level of HPK1 remaining following treatment with HPK1 CTMs is reported as Dmax (maximum degradation) achieved at 24 hours when compared to vehicle treated controls. […] These decreases were not a result of cytotoxicity measured by a parallel viability assessment (CTG). See also Table 1.
A HiBiT tag was introduced by CRISPR on the N terminus of HPK1 in Jurkat cells (ATCC® TIB-152) to allow quantitation of HPK1 protein levels in a monoclonal human cell line. Cells were plated at 1×10^6 cells/mL, 30 uL/well (3×10^4 cells/well) in complete RPMI 1640 (10% heat inactivated FBS, 1% L-glutamine) in 384-well assay plates (Corning, cat. no. 3570). HPK1 chimeric targeting molecules (CTMs) were added in an 11-point dilution series (3.16-fold) with a final assay concentration range of 10 uM to 0.1 nM. The parental Jurkat cell line, with no HiBiT insertion, was included in the assay as a background control. Cells treated with a DMSO vehicle control were used to determine the maximum signal defining 100% HPK1 in the cell. Cells were incubated for 24 hours at 37° C./5% CO2. Following incubation, 30 uL of complete Nano-Glo HiBiT Lytic Detection Reagent (Promega cat. no. N3040) was added. Cells were incubated for 10 minutes at room temperature and luminescence was read on an EnVision plate reader (Perkin Elmer, 0.1 sec per well). Parallel plates were assessed for viability using Cell Titer Glo (Promega) and read on an EnVision plate reader to ensure results were not the effect of cytotoxicity. Percent HPK1 remaining per sample was calculated as follows: […]
% HPK1 remaining values were plotted as a function of compound concentration and curves were fit using the Prism (GraphPad) equation “log(inhibitor) vs response−Variable slope (four parameters)”. Dmax values were calculated by identifying the lowest % remaining and subtracting from 100. Dmax values are provided in Table 1, wherein A>65%, 45%≤B≤65% and C<45%.

T1 sequence (Q92918 whole entry): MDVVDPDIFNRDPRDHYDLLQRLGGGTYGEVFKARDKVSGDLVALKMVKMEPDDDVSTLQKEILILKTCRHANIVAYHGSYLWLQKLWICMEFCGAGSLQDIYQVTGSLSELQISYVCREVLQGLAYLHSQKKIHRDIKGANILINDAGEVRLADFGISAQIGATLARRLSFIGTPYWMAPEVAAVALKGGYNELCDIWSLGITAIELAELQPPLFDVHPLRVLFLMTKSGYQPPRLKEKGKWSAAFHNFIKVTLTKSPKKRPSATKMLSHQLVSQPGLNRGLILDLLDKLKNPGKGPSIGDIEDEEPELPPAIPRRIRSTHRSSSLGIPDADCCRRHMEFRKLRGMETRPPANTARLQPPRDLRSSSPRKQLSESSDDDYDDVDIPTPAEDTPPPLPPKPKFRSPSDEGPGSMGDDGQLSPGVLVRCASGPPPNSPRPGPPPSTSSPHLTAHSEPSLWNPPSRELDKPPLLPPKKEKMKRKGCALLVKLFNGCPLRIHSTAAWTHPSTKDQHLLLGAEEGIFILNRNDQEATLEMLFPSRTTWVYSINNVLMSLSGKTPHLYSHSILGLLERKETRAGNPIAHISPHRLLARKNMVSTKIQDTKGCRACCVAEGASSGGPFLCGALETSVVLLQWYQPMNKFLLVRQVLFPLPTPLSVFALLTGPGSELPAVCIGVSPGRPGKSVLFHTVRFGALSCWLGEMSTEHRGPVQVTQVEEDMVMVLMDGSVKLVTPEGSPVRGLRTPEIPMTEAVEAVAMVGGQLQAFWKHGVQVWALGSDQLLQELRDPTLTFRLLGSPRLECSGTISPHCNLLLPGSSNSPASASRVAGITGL

With `Cc1cc(F)c(Nc2nc(-c3ccc4c(c3)N([C@H]3C[C@@H](N5CCCCC5)C3)C(=O)C43CCN(C(=O)[C@@H]4CCN(C(=O)C[C@H]5CC[C@H](Nc6cccc7c6C(=O)N(C6CCC(=O)NC6=O)C7=O)CC5)C4)CC3)cc3ncn(C(C)C)c23)cc1C(=O)NC(C)C` (stereo partly drawn) [Example 82, 5-((6-(1′-((3R)-1-(2-((1R,4R)-4-((2-(2,6-dioxopiperidin-3-yl)-1,3-dioxoisoindolin-4-yl)amino)cyclohexyl)acetyl)pyrrolidine-3-carbonyl)-2-oxo-1-((1s,3s)-3-(piperidin-1-yl)cyclobutyl)spiro[indoline-3,4′-piperidin]-6-yl)-3-isopropyl-3H-imidazo[4,5-c]pyridin-4-yl)amino)-4-fluoro-N-isopropyl-2-methylbenzamide] as the compound, how does the Dmax read?
The Dmax was 45 to 65%.

How did the Dmax turn out when `Cc1cc(F)c(Nc2nc(-c3ccc4c(c3)N([C@H]3C[C@@H](N5CCCCC5)C3)C(=O)C43CCN(C(=O)c4cnc(N5CCN(c6cccc7c6C(=O)N(C6CCC(=O)NC6=O)C7=O)CC5)cn4)CC3)cc3ncn(C(C)C)c23)cc1C(=O)NC(C)C` (some centres unmarked) [Example 84, 5-((6-(1′-(5-(4-(2-(2,6-dioxopiperidin-3-yl)-1,3-dioxoisoindolin-4-yl)piperazin-1-yl)pyrazine-2-carbonyl)-2-oxo-1-((1s,3s)-3-(piperidin-1-yl)cyclobutyl)spiro[indoline-3,4′-piperidin]-6-yl)-3-isopropyl-3H-imidazo[4,5-c]pyridin-4-yl)amino)-4-fluoro-N-isopropyl-2-methylbenzamide] was run?
Its Dmax is 45 to 65%.

Which Dmax does the source give for `Cc1cc(F)c(Nc2nc(-c3ccc4c(c3)N([C@H]3C[C@@H](N5CCCCC5)C3)C(=O)C43CCN(C(=O)CCOCCOCCOCCOc4cc(-c5scnc5C)ccc4CNC(=O)[C@H]4C[C@H](O)CN4C(=O)[C@H](NC(=O)C4(F)CC4)C(C)(C)C)CC3)cc3ncn(C(C)C)c23)cc1C(=O)NC(C)C` [Example 9, (2S,4R)—N-(2-(2-(2-(2-(3-(6-(4-((2-fluoro-5-(isopropylcarbamoyl)-4-methylphenyl)amino)-3-isopropyl-3H-imidazo[4,5-c]pyridin-6-yl)-2-oxo-1-((1s,3s)-3-(piperidin-1-yl)cyclobutyl)spiro[indoline-3,4′-piperidin]-1′-yl)-3-oxopropoxy)ethoxy)ethoxy)ethoxy)-4-(4-methylthiazol-5-yl)benzyl)-1-((S)-2-(1-Fluorocyclopropane-1-carboxamido)-3,3-dimethylbutanoyl)-4-hydroxypyrrolidine-2-carboxamide] here?
Its Dmax is under 45%.

Which Dmax does the source give for `Cc1cc(F)c(Nc2nc(-c3ccc4c(c3)N([C@H]3C[C@@H](N5CCCCC5)C3)C(=O)C43CCN(C(=O)[C@@H]4CCN(C(=O)N5CCC(Nc6cccc7c6C(=O)N(C6CCC(=O)NC6=O)C7=O)CC5)C4)CC3)cc3ncn(C(C)C)c23)cc1C(=O)NC(C)C` (stereo partly drawn) [Example 69, 5-[(6-{1′-[(3R)-1-[4-({2-[2,6-dioxopiperidin-3-yl]-1,3-dioxo-2,3-dihydro-1H-isoindol-4-yl}amino)piperidine-1-carbonyl]pyrrolidine-3-carbonyl]-2-oxo-1-[(1S,3s)-3-(piperidin-1-yl)cyclobutyl]-1,2-dihydrospiro[indole-3,4′-piperidin]-6-yl}-3-(propan-2-yl)-3H-imidazo[4,5-c]pyridin-4-yl)amino]-4-fluoro-2-methyl-N-(propan-2-yl)benzamide] here?
Its Dmax is 45 to 65%.

`Cc1cc(F)c(Nc2nc(-c3ccc4c(c3)N([C@H]3C[C@@H](N5CCCCC5)C3)C(=O)C43CCN(C(=O)c4ccc(CN5CCN(c6ccc7c(c6)C(=O)N(C6CCC(=O)NC6=O)C7=O)CC5)cc4)CC3)cc3ncn(C(C)C)c23)cc1C(=O)NC(C)C` (some centres unmarked) [Example 91, 5-[(6-{1′-[4-({4-[2-(2,6-dioxopiperidin-3-yl)-1,3-dioxoisoindol-5-yl]piperazin-1-yl}methyl)benzoyl]-2-oxo-1-[(1s,3s)-3-(piperidin-1-yl)cyclobutyl]spiro[indole-3,4′-piperidin]-6-yl}-3-isopropylimidazo[4,5-c]pyridin-4-yl)amino]-4-fluoro-N-isopropyl-2-methylbenzamide] was tested. Which Dmax did it give?
The Dmax was 45 to 65%.

How did the Dmax turn out when `Cc1cc(F)c(Nc2nc(-c3ccc4c(c3)N([C@H]3C[C@@H](N5CCCCC5)C3)C(=O)C43CCN(C(=O)c4ccc(C(=O)N5CCN(c6ccc7c(c6)C(=O)N(C6CCC(=O)NC6=O)C7=O)CC5)cc4)CC3)cc3ncn(C(C)C)c23)cc1C(=O)NC(C)C` (some centres unmarked) [Example 78, 5-((6-(1′-(4-(4-(2-(2,6-dioxopiperidin-3-yl)-1,3-dioxoisoindolin-5-yl)piperazine-1-carbonyl)benzoyl)-2-oxo-1-((1s,3s)-3-(piperidin-1-yl)cyclobutyl)spiro[indoline-3,4′-piperidin]-6-yl)-3-isopropyl-3H-imidazo[4,5-c]pyridin-4-yl)amino)-4-fluoro-N-isopropyl-2-methylbenzamide] was run?
The Dmax was 45 to 65%.

For `Cc1cc(F)c(Nc2nc(-c3ccc4c(c3)N([C@H]3C[C@@H](N5CCCCC5)C3)C(=O)C43CCN(C(=O)CCC4CCN(CC(=O)N[C@H](C(=O)N5C[C@H](O)C[C@H]5C(=O)N[C@@H](C)c5ccc(-c6scnc6C)cc5)C(C)(C)C)CC4)CC3)cc3ncn(C(C)C)c23)cc1C(=O)NC(C)C` [Example 14, (2S,4R)-1-((S)-2-(2-(4-(3-(6-(4-((2-fluoro-5-(isopropylcarbamoyl)-4-methylphenyl)amino)-3-isopropyl-3H-imidazo[4,5-c]pyridin-6-yl)-2-oxo-1-((1s,3s)-3-(piperidin-1-yl)cyclobutyl)spiro[indoline-3,4′-piperidin]-1′-yl)-3-oxopropyl)piperidin-1-yl)acetamido)-3,3-dimethylbutanoyl)-4-hydroxy-N—((S)-1-(4-(4-methylthiazol-5-yl)phenyl)ethyl)pyrrolidine-2-carboxamide], which Dmax is on record?
The Dmax was 45 to 65%.

For `Cc1cc(F)c(Nc2nc(-c3ccc4c(c3)N(C3CC(N5CCCCC5)C3)C(=O)C43CCN(C(=O)CCCCCCCCCC(=O)N[C@H](C(=O)N4C[C@H](O)C[C@H]4C(=O)N[C@@H](C)c4ccc(-c5scnc5C)cc4)C(C)(C)C)CC3)cc3ncn(C(C)C)c23)cc1C(=O)NC(C)C` (stereo partly drawn) [Example 8, (2S,4R)-1-((S)-2-(11-(6-(4-((2-fluoro-5-(isopropylcarbamoyl)-4-methylphenyl)amino)-3-isopropyl-3H-imidazo[4,5-c]pyridin-6-yl)-2-oxo-1-((1s,3s)-3-(piperidin-1-yl)cyclobutyl)spiro[indoline-3,4′-piperidin]-1′-yl)-11-oxoundecanamido)-3,3-dimethylbutanoyl)-4-hydroxy-N—((S)-1-(4-(4-methylthiazol-5-yl)phenyl)ethyl)pyrrolidine-2-carboxamide], which “Cellular HPK1 HiBiT: Dmax (%)” value is on record?
The value was “A (A>65%)”.

With `Cc1cc(F)c(Nc2nc(-c3ccc4c(c3)N([C@H]3C[C@@H](N5CCCCC5)C3)C(=O)C43CCN(C(=O)c4ccc(N5CCN(c6ccc7c(c6)C(=O)N(C6CCC(=O)NC6=O)C7=O)CC5)nc4)CC3)cc3ncn(C(C)C)c23)cc1C(=O)NC(C)C` (some centres unmarked) [Example 85, 5-((6-(1′-(6-(4-(2-(2,6-dioxopiperidin-3-yl)-1,3-dioxoisoindolin-5-yl)piperazin-1-yl)nicotinoyl)-2-oxo-1-((1s,3s)-3-(piperidin-1-yl)cyclobutyl)spiro[indoline-3,4′-piperidin]-6-yl)-3-isopropyl-3H-imidazo[4,5-c]pyridin-4-yl)amino)-4-fluoro-N-isopropyl-2-methylbenzamide] as the compound, how does the Dmax read?
Its Dmax is under 45%.

With `Cc1cc(F)c(Nc2nc(-c3ccc4c(c3)N([C@H]3C[C@@H](N5CCCCC5)C3)C(=O)C43CCN(C(=O)CN4CCN(CCCc5cccc6c5C(=O)N(C5CCC(=O)NC5=O)C6=O)CC4)CC3)cc3ncn(C(C)C)c23)cc1C(=O)NC(C)C` (some centres unmarked) [Example 21, 5-{[6-(1′-{2-[4-(3-{2-[2,6-dioxopiperidin-3-yl]-1,3-dioxo-2,3-dihydro-1H-isoindol-4-yl}propyl)piperazin-1-yl]acetyl}-2-oxo-1-[(1s,3s)-3-(piperidin-1-yl)cyclobutyl]-1,2-dihydrospiro[indole-3,4′-piperidin]-6-yl)-3-(propan-2-yl)-3H-imidazo[4,5-c]pyridin-4-yl]amino}-4-fluoro-2-methyl-N-(propan-2-yl)benzamide] as the compound, how does the Dmax read?
Its Dmax is under 45%.

With `Cc1cc(F)c(Nc2nc(-c3ccc4c(c3)N(C3CC(N5CCCCC5)C3)C(=O)C43CCN(C(=O)CCCCCCCCCNc4ccc5c(c4)C(=O)N(C4CCC(=O)NC4=O)C5=O)CC3)cc3ncn(C(C)C)c23)cc1C(=O)NC(C)C` (centres unmarked) [Example 4, 5-((6-(1′-(10-((2-(2,6-dioxopiperidin-3-yl)-1,3-dioxoisoindolin-5-yl)amino)decanoyl)-2-oxo-1-((1s,3s)-3-(piperidin-1-yl)cyclobutyl)spiro[indoline-3,4′-piperidin]-6-yl)-3-isopropyl-3H-imidazo[4,5-c]pyridin-4-yl)amino)-4-fluoro-N-isopropyl-2-methylbenzamide] as the compound, how does the Dmax read?
Its Dmax is under 45%.
